Assay results from ChEMBL document CHEMBL1201862, “PubChem BioAssay data set” (2004).
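Method: 48-hour compound exposure of cells in 96-well plates, five concentrations, linear interpolation of endpoints. Here, GI50 denotes the concentration required for 50% inhibition of growth.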 The source made the active and inactive calls. No stated cut-off is given here; in the data, active = GI50 up to about 1.1 µM and inactive = higher.

How the values were obtained:
Test in all cases: DTP human tumour cell line panel, 48 h
[1] = test system: 786-0
[2] = test system: A498
[3] = test system: HCT-116
[4] = test system: LOX IMVI
[5] = test system: M14
[6] = test system: Malme-3M
[7] = test system: NCI-H226
[8] = test system: NCI-H23
[9] = test system: NCI-H460
[10] = test system: OVCAR-5
[11] = test system: OVCAR-8
[12] = test system: RXF 393
[13] = test system: SK-MEL-2
[14] = test system: SNB-19
[15] = test system: UACC-62
[16] = test system: UO-31
[17] = test system: HOP-92

| Structure (SMILES) | GI50 [1] | GI50 [2] | GI50 [3] | GI50 [4] | GI50 [5] | GI50 [6] | GI50 [7] | GI50 [8] | GI50 [9] | GI50 [10] | GI50 [11] | GI50 [12] | GI50 [13] | GI50 [14] | GI50 [15] | GI50 [16] | GI50 [17] |
| --- | --- | --- | --- | --- | --- | --- | --- | --- | --- | --- | --- | --- | --- | --- | --- | --- | --- |
| COC1OC2COC(C)(C)OC2C(OC(C)=O)C1NC(=O)N(CCCl)N=O (configuration not stated) | 59.4 µM (inactive) | > 100 µM (inactive) | > 100 µM (inactive) | 28.7 µM (inactive) | > 100 µM (inactive) | > 100 µM (inactive) | 47 µM (inactive) | > 100 µM (inactive) | 46.7 µM (inactive) | > 100 µM (inactive) | > 100 µM (inactive) | > 100 µM (inactive) | > 100 µM (inactive) | 46 µM (inactive) | 19.3 µM (inactive) | – | – |
| CCOC(=O)/C(=C\c1ccc(N(CCC#N)CCC#N)cc1)NC(=O)c1cc([N+](=O)[O-])ccc1Cl | > 100 µM (inactive) | > 100 µM (inactive) | > 100 µM (inactive) | 69 µM (inactive) | > 100 µM (inactive) | > 100 µM (inactive) | > 100 µM (inactive) | > 100 µM (inactive) | > 100 µM (inactive) | > 100 µM (inactive) | > 100 µM (inactive) | > 100 µM (inactive) | > 100 µM (inactive) | > 100 µM (inactive) | > 100 µM (inactive) | 69 µM (inactive) | – |
| N#Cc1c2ccccc2cn1-c1ccc(F)cc1 | 30.3 µM (inactive) | – | 16.8 µM (inactive) | – | 35.2 µM (inactive) | 33.7 µM (inactive) | 9.27 µM (inactive) | 17.7 µM (inactive) | 29.7 µM (inactive) | 45.6 µM (inactive) | > 10 µM (inactive) | – | > 10 µM (inactive) | 22.4 µM (inactive) | 30 µM (inactive) | 8.59 µM (inactive) | 20.6 µM (inactive) |
| C/C=C(\CCOS(=O)(=O)c1ccc(C)cc1)[Si](C)(C)C | > 100 µM (inactive) | > 100 µM (inactive) | > 100 µM (inactive) | > 100 µM (inactive) | > 100 µM (inactive) | > 100 µM (inactive) | – | > 100 µM (inactive) | > 100 µM (inactive) | > 100 µM (inactive) | > 100 µM (inactive) | > 100 µM (inactive) | > 100 µM (inactive) | > 100 µM (inactive) | > 100 µM (inactive) | > 100 µM (inactive) | > 100 µM (inactive) |
| Cc1ccc([S+]([O-])C(C)C(Cl)c2ccccc2)cc1 (configuration not stated) | > 100 µM (inactive) | > 100 µM (inactive) | > 100 µM (inactive) | > 100 µM (inactive) | > 100 µM (inactive) | – | > 100 µM (inactive) | 72.3 µM (inactive) | > 100 µM (inactive) | > 100 µM (inactive) | 78 µM (inactive) | 53.7 µM (inactive) | > 100 µM (inactive) | – | 80 µM (inactive) | > 100 µM (inactive) | > 100 µM (inactive) |
| N#CC12CCC1C1CCCCC12N1CCSCC1 (configuration not stated) | > 100 µM (inactive) | > 100 µM (inactive) | > 100 µM (inactive) | – | – | – | – | > 10 µM (inactive) | > 100 µM (inactive) | – | > 100 µM (inactive) | 18.1 µM (inactive) | 35.4 µM (inactive) | > 100 µM (inactive) | > 100 µM (inactive) | > 100 µM (inactive) | > 100 µM (inactive) |
| Cc1cc2c([nH]c3ccccc32)c2c1OC(C)(C)C1C3CC(C)(C)Oc4c(C)cc5c6ccccc6n(c5c43)C21 (configuration not stated) | > 100 µM (inactive) | > 100 µM (inactive) | > 100 µM (inactive) | > 100 µM (inactive) | > 100 µM (inactive) | > 100 µM (inactive) | – | > 100 µM (inactive) | 52.7 µM (inactive) | > 100 µM (inactive) | > 100 µM (inactive) | > 100 µM (inactive) | > 100 µM (inactive) | > 100 µM (inactive) | > 100 µM (inactive) | > 100 µM (inactive) | > 100 µM (inactive) |
| N#Cc1c2c(c(N=[N+]=[N-])n3c1nc1ccccc13)CCCC2 | 1.9 µM (inactive) | 2.65 µM (inactive) | 1.43 µM (inactive) | 1.8 µM (inactive) | 1.93 µM (inactive) | 2.4 µM (inactive) | 1.73 µM (inactive) | 2.55 µM (inactive) | 1.92 µM (inactive) | 6.07 µM (inactive) | 1.69 µM (inactive) | 1.77 µM (inactive) | 1.73 µM (inactive) | 2.55 µM (inactive) | – | 1.94 µM (inactive) | – |
| COc1cc2c(c3c1c(=O)c1ccccc1n3C)C=CC(C)(C)O2 [ACRONINE] | 71 µM (inactive) | – | > 100 µM (inactive) | > 100 µM (inactive) | > 100 µM (inactive) | > 100 µM (inactive) | > 100 µM (inactive) | 33.4 µM (inactive) | 43.6 µM (inactive) | > 100 µM (inactive) | > 100 µM (inactive) | 25.1 µM (inactive) | > 100 µM (inactive) | > 100 µM (inactive) | 96.2 µM (inactive) | 49.9 µM (inactive) | > 100 µM (inactive) |
| Cc1cc2c(c3nocc13)C(=O)c1ccccc1C2=O | > 100 µM (inactive) | – | – | > 100 µM (inactive) | > 100 µM (inactive) | > 100 µM (inactive) | – | > 100 µM (inactive) | > 100 µM (inactive) | > 100 µM (inactive) | > 100 µM (inactive) | > 100 µM (inactive) | > 100 µM (inactive) | > 100 µM (inactive) | > 100 µM (inactive) | > 100 µM (inactive) | 16.2 µM (inactive) |
| O=C(COC(=O)c1cccc2c(=O)c3ccccc3[nH]c12)Nc1ccccc1 | > 100 µM (inactive) | 67.8 µM (inactive) | 24.2 µM (inactive) | 24.2 µM (inactive) | 38 µM (inactive) | 35.9 µM (inactive) | 33.3 µM (inactive) | 19.5 µM (inactive) | 94.6 µM (inactive) | – | 37 µM (inactive) | 33.1 µM (inactive) | – | > 100 µM (inactive) | 26.4 µM (inactive) | 22.2 µM (inactive) | 45 µM (inactive) |
| CCOC12SC(Nc3ccc(C)cc3)=NN1C(=S)N(C)N=C2C (configuration not stated) | > 100 µM (inactive) | > 100 µM (inactive) | > 100 µM (inactive) | > 100 µM (inactive) | > 100 µM (inactive) | – | > 100 µM (inactive) | > 100 µM (inactive) | > 100 µM (inactive) | > 100 µM (inactive) | > 100 µM (inactive) | > 100 µM (inactive) | – | > 100 µM (inactive) | > 100 µM (inactive) | – | > 100 µM (inactive) |
| O=C(CSc1nnc(-c2ccc(/N=C\c3ccc(Cl)cc3)cc2)o1)Nc1ccc(Cl)cc1 | > 100 µM (inactive) | – | > 100 µM (inactive) | > 100 µM (inactive) | > 100 µM (inactive) | > 100 µM (inactive) | > 100 µM (inactive) | > 100 µM (inactive) | > 100 µM (inactive) | – | > 100 µM (inactive) | > 100 µM (inactive) | > 100 µM (inactive) | > 100 µM (inactive) | > 100 µM (inactive) | > 100 µM (inactive) | – |
| [N-]=[N+]=NC1C(Br)C(=O)NC(=O)N1[C@H]1C[C@H](O)[C@@H](CO)O1 (some centres not stated) | > 100 µM (inactive) | > 100 µM (inactive) | – | > 100 µM (inactive) | > 100 µM (inactive) | – | – | > 100 µM (inactive) | > 100 µM (inactive) | > 100 µM (inactive) | > 100 µM (inactive) | > 100 µM (inactive) | > 100 µM (inactive) | > 100 µM (inactive) | > 100 µM (inactive) | > 100 µM (inactive) | > 100 µM (inactive) |
| COc1ccc2nc(-c3ccccn3)cc(O)c2c1 | 90.2 µM (inactive) | – | – | 41.2 µM (inactive) | 24.2 µM (inactive) | 24 µM (inactive) | – | 41.9 µM (inactive) | 34.7 µM (inactive) | > 100 µM (inactive) | 39.8 µM (inactive) | – | – | > 100 µM (inactive) | 32.8 µM (inactive) | 18.4 µM (inactive) | 43.9 µM (inactive) |
| N/N=c1\c2ccccc2c2cc3c(cc12)/c(=N/N)c1ccccc13 | > 100 µM (inactive) | – | > 100 µM (inactive) | – | > 100 µM (inactive) | > 100 µM (inactive) | > 100 µM (inactive) | > 100 µM (inactive) | > 100 µM (inactive) | > 100 µM (inactive) | > 100 µM (inactive) | > 100 µM (inactive) | > 100 µM (inactive) | > 100 µM (inactive) | > 100 µM (inactive) | > 100 µM (inactive) | > 100 µM (inactive) |
| CC[S+](C)c1ccc(-c2c3nc(c(-c4ccc([S+](C)CC)cc4)c4ccc([nH]4)c(-c4ccc([S+](C)CC)cc4)c4nc(c(-c5ccc([S+](C)CC)cc5)c5ccc2[nH]5)C=C4)C=C3)cc1.[O-][Cl+3]([O-])([O-])[O-].[O-][Cl+3]([O-])([O-])[O-].[O-][Cl+3]([O-])([O-])[O-].[O-][Cl+3]([O-])([O-])[O-] (configuration not stated) | 27.7 µM (inactive) | 36.6 µM (inactive) | 27.9 µM (inactive) | 11.3 µM (inactive) | 24.9 µM (inactive) | 4.4 µM (inactive) | – | 38.6 µM (inactive) | 22 µM (inactive) | 21.7 µM (inactive) | 22.9 µM (inactive) | 13.6 µM (inactive) | 18.2 µM (inactive) | 93.8 µM (inactive) | 12.9 µM (inactive) | – | 0.649 µM (active) |
| CNc1nnnn1C1OC(CO)C(O)C1O (configuration not stated) | > 100 µM (inactive) | > 100 µM (inactive) | > 100 µM (inactive) | > 100 µM (inactive) | > 100 µM (inactive) | > 100 µM (inactive) | > 100 µM (inactive) | – | > 100 µM (inactive) | > 100 µM (inactive) | > 100 µM (inactive) | 43.9 µM (inactive) | > 100 µM (inactive) | – | > 100 µM (inactive) | > 100 µM (inactive) | – |
